# According to patent US12679839B2, “Cyclin-dependent kinase 7 (CDK7) non-covalent inhibitors” (JANSSEN PHARMACEUTICA NV, priority 2020, dated 2026):
# Key:
# [1] = biological target: T1, CDK7/Cyclin H/MAT-1 complex (Homo sapiens, UniProt P50613); test: Flint assay, end-point fluorescence (5 nM CDK7/Cyclin H/MAT-1 complex); type: biochemical; conditions: for IC50: read-out: CDK7 (5 nM) pIC50 (converted)
# T1 construct: Human CDK7 (amino acids 1-346); His6 (N); TEV protease cleavage site (N); made in house; host or cells: baculovirus-SF9 insect cells
# T1 sequence (P50613 whole entry, the tested form may be a part): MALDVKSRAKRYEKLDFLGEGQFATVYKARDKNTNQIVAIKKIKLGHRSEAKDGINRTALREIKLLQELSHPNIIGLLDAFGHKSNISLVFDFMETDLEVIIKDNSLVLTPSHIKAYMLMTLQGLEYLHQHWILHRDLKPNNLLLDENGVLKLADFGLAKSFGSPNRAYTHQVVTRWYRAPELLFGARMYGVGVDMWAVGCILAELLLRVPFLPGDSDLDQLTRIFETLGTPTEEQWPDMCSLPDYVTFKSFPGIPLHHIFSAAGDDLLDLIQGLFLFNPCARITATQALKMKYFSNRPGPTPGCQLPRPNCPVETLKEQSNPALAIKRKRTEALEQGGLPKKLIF
# T1 sequence (P51946 whole entry partner, the tested form may be a part): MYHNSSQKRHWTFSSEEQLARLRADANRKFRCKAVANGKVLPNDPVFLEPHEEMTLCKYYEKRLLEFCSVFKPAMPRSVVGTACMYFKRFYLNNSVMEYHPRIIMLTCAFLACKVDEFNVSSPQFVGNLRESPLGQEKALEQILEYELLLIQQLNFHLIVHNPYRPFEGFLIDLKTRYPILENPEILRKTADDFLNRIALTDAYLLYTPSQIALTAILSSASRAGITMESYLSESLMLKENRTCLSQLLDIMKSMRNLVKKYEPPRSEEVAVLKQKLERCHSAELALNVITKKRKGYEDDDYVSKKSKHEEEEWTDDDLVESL
# T1 sequence (P51948 whole entry partner, the tested form may be a part): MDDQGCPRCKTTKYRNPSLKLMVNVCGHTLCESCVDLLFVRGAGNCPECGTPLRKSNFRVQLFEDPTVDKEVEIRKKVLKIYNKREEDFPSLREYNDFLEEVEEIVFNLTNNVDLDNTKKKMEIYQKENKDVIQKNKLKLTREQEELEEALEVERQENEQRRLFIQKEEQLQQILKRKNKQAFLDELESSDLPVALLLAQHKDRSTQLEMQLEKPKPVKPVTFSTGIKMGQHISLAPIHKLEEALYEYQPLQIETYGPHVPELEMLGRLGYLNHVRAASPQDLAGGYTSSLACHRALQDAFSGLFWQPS
# Protocol: Human CDK7 (amino acids 1-346) containing an N-terminal His6-tag followed by a tobacco etch virus (TEV) protease cleavage site, human MAT1 (amino acids 1-309) and human cyclin H (amino acids 1-323) were co-expressed in the baculovirus-SF9 insect cell expression system to generate a trimeric complex. Cell pellets were collected 72 h post-infection and were resuspended by Dounce homogenization in 20 mM Hepes-NaOH (pH 8.0), 300 mM NaCl, 10% glycerol, 2 mM dithiothreitol DTT), and 20 mM Imidazole supplemented with cOmplete™ Protease Inhibitor Cocktail (Roche) and 25 U/mL Benzonase® Nuclease HC according to the manufacturer's instructions. Cells were lysed by passing through a Microfluidics M110Y Microfluidizer 3 times at 600 kPa followed by centrifugation at 38,000×g at 4° C. for 1 hour. The supernatant was loaded onto a pre-equilibrated HisTrap HP column and eluted in 20 mM Hepes-NaOH (pH 8.0), 50 mM NaCl, 10% glycerol, 2 mM DTT, and 400 mM Imidazole. The eluate was further purified by gel filtration on a Superdex S200 16/60 column and eluted with 20 mM Hepes-NaOH (pH 7.5), 50 mM NaCl, 10% Glycerol, 2 mM DTT. Fractions containing a trimeric complex of CDK7, cyclin H, and MAT1 in a 1:1:1 ratio were pooled and concentrated to 3 mg/mL in a 10 kDa MWCO concentrator, and diluted to a final concentration of 1.6 mg/mL in 11.1 mM Hepes-NaOH (pH 8.0), 27.8 mM NaCl, 1.1 mM DTT and 50% glycerol.
# Compounds with potencies approaching the limit of detection of the assay (IC50≤10 nM) were further assessed in a more sensitive fluorescence end-point assay.
# [formula] where νo is the rate in the absence of inhibitor, νmin is the rate at highest inhibitor concentration, and h is the Hill coefficient. Flint Assay (5 nM CDK7/Cyclin H/MAT-1 Complex)
# The continuous absorbance assay was converted to an end-point fluorescence assay following the NADH fluorescence signal decrease at the excitation and emission wavelengths of 340 nm and 440 nm, respectively.
# Under the same concentrations of substrates and coupling reagents used in the absorbance assay, the fluorescence assay was performed at a reduced concentration of the CDK7/Cyclin H/MAT-1 complex of 5 nM (final concentration) with a reaction time of 24 hours. The percent of inhibition was calculated by the following equation. Percent of inhibition=(Sample−NC)/(PC−NC)*100 where NC is the mean if negative control (reaction without inhibitor), and PC is the mean of positive control (reaction with complete inhibition).
# Dosing curves were fitted using the following equation to obtain IC50: Y=Bottom+(Top−Bottom)/(1+10^((log IC50−X)*Hill slope)) where X=log10 of the compound concentration; top and bottom can be defined by PC and NC respectively. Imaging-Based Cellular RNA PolII Ser5 Phosphorylation Assay
# [2] = tested on: RNA polymerase II Serine 5 phosphorylation (Rpb1 CTD), downstream substrate of CDK7; test: Imaging-based cellular RNA PolII Ser5 phosphorylation assay in A549 cells; type: cell-based, human; conditions: challenged with compound for 3 hours; for IC50: Homo sapiens, A549, 3 h, read-out: pRNA polII Ser5 (A549) pIC50 (converted)
# How it was run: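 A549 cells seeded 20 h in DMEM with 1% FBS, then exposed to compound for 3 h at 37 °C; fixed, methanol-permeabilized and immunostained for phospho-Rpb1 CTD Ser5, read by automated imaging. Signal normalized to DMSO (high) and 10 μM LDC4297 (low) controls; IC50 from four-parameter fit of % control vs concentration.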
CDK7 (5 nM) pIC50 [1],IC50 [2] [nM],IC50 [1] [nM],pRNA polII Ser5 (A549) pIC50 [2],SMILES
8.2,537,–,–,"C[C@@H]1Cc2cnc(NCc3ccccc3)nc2CN1C(=O)[C@H]1CCN(CC2COC2)C[C@@H]1c1ccccc1 (single isomer, unassigned) [Compound 155]"
8.48,209,–,–,C[C@@H]1Cc2cnc(NC3CCN(S(C)(=O)=O)CC3)nc2CN1C(=O)N1CCN(C)C[C@@H]1c1ccccc1 [Compound 209]
7.2,> 10000,–,–,C[C@@H]1Cc2cnc(NCC3CCS(=O)(=O)C3)nc2CN1C(=O)[C@H]1CCN(C)C[C@@H]1c1ccccc1 (some centres unmarked) [Compound 49]
8.33,617,–,–,C[C@@H]1Cc2cnc(NC[C@@H]3CCOC3)nc2CN1C(=O)[C@H]1CCN(C)C[C@@H]1c1ccccc1 [Compound 62]
8.63,22.9,–,–,CCn1ccc(CNc2ncc3c(n2)CN(C(=O)[C@H]2CCN(C)C[C@@H]2c2ccccc2)[C@H](C)C3)n1 [Compound 58]
8.56,~28.2,–,–,CC(C)n1ccc(CNc2ncc3c(n2)CN(C(=O)[C@H]2CCN(C)C[C@@H]2c2ccccc2)[C@H](C)C3)n1 [Compound 66]
8.19,234,–,–,CC(C)N1CCN(C(=O)N2Cc3nc(NC4CCOCC4)ncc3C[C@H]2C)[C@@H](c2ccccc2)C1 [Compound 206]
8.28,141,–,–,C[C@@H]1Cc2cnc(N[C@H]3CCC[C@H](O)C3)nc2CN1C(=O)[C@H]1CCN(C)C[C@@H]1c1ccccc1 [Compound 59]
–,380,9.12,–,C[C@H]1Cc2cnc(Nc3cnn(C)c3)cc2CN1C(=O)[C@H]1CCN(C)C[C@@H]1c1ccccc1 (relative stereo) [Compound 176]
–,1700,19.5,–,Cc1ccc([C@@H]2CN(C)CC[C@H]2C(=O)N2Cc3nc(NC4CCOCC4)ncc3C[C@H]2C)cn1 (relative stereo) [Compound 108]
7.44,5130,–,–,C[C@@H]1Cc2cnc(NCc3cc(C(F)F)n(C)n3)nc2CN1C(=O)[C@H]1CCN(C)C[C@@H]1c1ccccc1 [Compound 56]
8.61,~45.7,–,–,C[C@@H]1Cc2cnc(NCc3ccn(C)n3)nc2CN1C(=O)[C@H]1CCN(C)C[C@@H]1c1ccccc1 [Compound 1]
8.16,~19.5,–,–,CO[C@H]1CC[C@H](Nc2ncc3c(n2)CN(C(=O)[C@H]2CCN(C)C[C@@H]2c2ccccc2)[C@H]2C[C@@H]32)CC1 [Compound 201]
8.0,178,–,–,C[C@@H]1Cc2cnc(Nc3cnn(CC(C)(C)O)c3)nc2CN1C(=O)[C@H]1CCN(C)C[C@@H]1c1ccccc1 [Compound 74]
–,–,12.3,6.98,CO[C@H]1CC[C@H](Nc2cc3c(cn2)C[C@H](C)N(C(=O)[C@@H]2CCN(C)C[C@H]2c2cccc(C)c2)C3)CC1 [Compound 177a]
8.13,166,–,–,"C[C@H]1Cc2cnc(NC3(c4ccccc4)COC3)cc2CN1C(=O)[C@H]1CCN(C)C[C@@H]1c1ccccc1 (single isomer, unassigned) [Compound 175]"

# Second part, the molecule before the results:
SMILES,CDK7 (5 nM) pIC50 [1],IC50 [2] [nM],IC50 [1] [nM],pRNA polII Ser5 (A549) pIC50 [2]
C[C@@H]1Cc2cnc(NC3CCN(S(=O)(=O)C4CC4)CC3)nc2CN1C(=O)N1CCN(C)C[C@@H]1c1ccccc1 [Compound 210],8.48,110,–,–
C[C@H]1Cc2cnc(NCc3ccn(C)n3)cc2CN1C(=O)[C@H]1CCN(C)C[C@@H]1c1ccccc1 (relative stereo) [Compound 174],–,35.5,2.63,–
C[C@@H]1Cc2cnc(NC3CCS(=O)(=O)CC3)nc2CN1C(=O)N1CCN(C)C[C@@H]1c1ccccc1 [Compound 214],7.8,3550,–,–
C[C@@H]1Cc2cnc(NCc3ccn(C)n3)nc2CN1C(=O)[C@@H]1CCN(C)C[C@H]1c1cccc(OC(F)(F)F)c1 (relative stereo) [Compound 127],–,1510,75.9,–
C[C@@H]1Cc2cnc(N[C@H]3CC[C@H](O)CC3)nc2CN1C(=O)[C@H]1CCN(C)C[C@@H]1c1ccccc1 [Compound 12],8.49,93.3,–,–
C[C@@H]1Cc2cnc(NCc3ccn(C)c3)nc2CN1C(=O)[C@H]1CCN(C)C[C@@H]1c1ccccc1 [Compound 60],–,214,3.55,–
C[C@@H]1Cc2cnc(NCc3ccn(C)n3)nc2CN1C(=O)N1CCN(C)C[C@@H]1c1ccccc1 [Compound 213],6.9,1380,–,–
Cc1cc(Nc2ncc3c(n2)CN(C(=O)[C@H]2CCN(C)C[C@@H]2c2ccccc2)[C@H](C)C3)ccn1 [Compound 78],8.37,~57.5,–,–
C[C@@H]1Cc2cnc(NC3CCN(CC(F)(F)F)CC3)nc2CN1C(=O)[C@H]1CCN(C)C[C@@H]1c1ccccc1 [Compound 45],7.65,437,–,–
CO[C@]1(C)CC[C@@H](Nc2ncc3c(n2)CN(C(=O)[C@H]2CCN(C)C[C@@H]2c2ccccc2)[C@H](C)C3)CC1 [Compound 10],8.11,158,–,–
Cc1cc(CNc2ncc3c(n2)CN(C(=O)[C@H]2CCN(C)C[C@@H]2c2ccccc2)[C@H](C)C3)nn1C [Compound 65],7.33,6610,–,–
C[C@@H]1Cc2cnc(NC[C@@H]3CCCO3)nc2CN1C(=O)[C@H]1CCN(C)C[C@@H]1c1ccccc1 [Compound 67],–,1320,16.6,–
CN1CC[C@H](C(=O)N2Cc3nc(Nc4cnn(C)c4)ncc3[C@@H]3C[C@@H]32)[C@@H](c2ccccc2)C1 [Compound 200],7.77,324,–,–
C[C@@H]1c2nc(NC3CCOCC3)ncc2[C@@H](C)CN1C(=O)[C@H]1CCN(C)C[C@@H]1c1ccccc1 [Compound 180a],8.68,~32.4,–,–
Cc1cn(C)nc1CNc1ncc2c(n1)CN(C(=O)[C@H]1CCN(C)C[C@@H]1c1ccccc1)[C@H](C)C2 [Compound 61],7.97,912,–,–
C[C@@H]1Cc2cnc(NCc3cc[nH]n3)nc2CN1C(=O)[C@H]1CCN(C)C[C@@H]1c1ccccc1 [Compound 51],–,1320,8.32,–
Cc1cccc([C@H]2CN(C)CC[C@@H]2C(=O)N2Cc3nc(Nc4cnn(C)c4)ncc3C[C@H]2C)c1 (relative stereo) [Compound 126],–,~3.89,3.72,–
CN1CC[C@H](C(=O)N2Cc3nc(NC4CCOCC4)ncc3C(C)(C)C2)[C@@H](c2ccccc2)C1 [Compound 193],7.05,3630,–,–
CC(C)n1cc(Nc2ncc3c(n2)CN(C(=O)[C@H]2CCN(C)C[C@@H]2c2ccccc2)[C@H](C)C3)cn1 [Compound 89],<6.7,70.8,–,–
C[C@@H]1Cc2cnc(NC[C@H]3CCOC3)nc2CN1C(=O)[C@H]1CCN(C)C[C@@H]1c1ccccc1 [Compound 53],7.99,575,–,–
C[C@@H]1Cc2cnc(NCc3ccsc3)nc2CN1C(=O)[C@H]1CCN(C)C[C@@H]1c1ccccc1 [Compound 48],7.92,132,–,–
Cc1ncc(CNc2ncc3c(n2)CN(C(=O)[C@H]2CCN(C)C[C@@H]2c2ccccc2)[C@H](C)C3)[nH]1 [Compound 52],7.9,2450,–,–
C[C@@H]1Cc2cnc(N[C@@H](CO)c3ccccc3)nc2CN1C(=O)[C@H]1CCN(C)C[C@@H]1c1ccccc1 [Compound 71],8.54,120,–,–
C[C@@H]1Cc2cnc(NC3CCOCC3)nc2CN1C(=O)N1CCN(C)C[C@@H]1c1ccccc1 [Compound 204a],8.17,269,–,–
